This series in a line: recombinant barcode read abundance after kanamycin selection (control-corrected) (log10(CPM+1)); higher = more efficient recombination; sequences stand for … in AGTGCAGAGAAAATCGGCCAGTTTTCTCTGCCTGCAGTCCGCATGCCGT…AGATTTATGCAGCGGACTGCCTTTCTCCCAAAGTGATAAACCGGACAGTATCATGGACCGGTTTTCCCGGTAATCCGTATTTGCAAGGTTGGTTTCACT; site = the 11-nt target. As to the method:
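Pooled E. coli target-specificity screen for the IS621 bridge recombinase. Each library plasmid pairs an 11-nt target (CT core) with a bridge RNA whose target-binding loop (9-nt LTG + 4-nt RTG) is reprogrammed; the rest of the 177-nt WT IS621 bridge RNA scaffold is fixed. The plasmid is co-electroporated with a WT donor plasmid; recombinase is induced with 0.1 mM IPTG and recombinants are selected on kanamycin. Recombinant barcodes are sequenced, converted to CPM, averaged over two biological replicates and corrected by the unselected control CPM. Molecule = full bridge RNA written as DNA: LTG = specificity nt 1-9, RTG = reverse complement of specificity nt 8-11, in the WT scaffold.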
On to “ACGGGTTCTTGGGTTCTAACCTGTTGCCT (site TCCGGTTCTAG)”, for which the “recombinant barcode read abundance (log10)” value stood at 0.107.
The figure for “ACGGTCACTTGGGTTCTAACCTGTTGCCT (site AAGGTCACTAG)” is 0.331; for “ACGGTCACTTGGGTTCTAACCTGTTGCCT (site ACGGTCACTAG)” it is 2.95; for “ACGGTCACTTGGGTTCTAACCTGTTGCCT (site AGGGTCACTAG)” it is 0.264.
The result for “ACGGTCACTTGGGTTCTAACCTGTTGCCT (site ATGGTCACTAG)” reads 0.869; that for “ACGGTGACTTGGGTTCTAACCTGTTGCCT (site ACGGTGACTAG)”, 2.24.
On to “ACGGTGACTTGGGTTCTAACCTGTTGCCT (site CCGGTGACTAG)”, for which the “recombinant barcode read abundance (log10)” value worked out at 0.298.
As to “ACGGTGACTTGGGTTCTAACCTGTTGCCT (site GCGGTGACTAG)”, the “recombinant barcode read abundance (log10)” value turned out to be 0.0376.
Take “ACGGTGACTTGGGTTCTAACCTGTTGCCT (site TCGGTGACTAG)”: the “recombinant barcode read abundance (log10)” value was determined as 0.0684.
The figure for “ACGTAGACTTGGGTTCTAACCTGTTGCAG (site ACAGAGACTCT)” is 0.145.
The result for “ACGTAGACTTGGGTTCTAACCTGTTGCAG (site ACGTAGACTCT)” reads 0.802.
The result for “ACGTCCACTTGGGTTCTAACCTGTTGCCA (site ACGTCCACTTG)” reads 0.148; that for “ACGTCCACTTGGGTTCTAACCTGTTGCCA (site GGAAGGTCTAT)”, 0.025; that for “ACGTCCACTTGGGTTCTAACCTGTTGCCT (site ACGTCCACTAG)”, 0.0313.
With “ACGTCCACTTGGGTTCTAACCTGTTGCCT (site CCGTCGACTAG)”, the “recombinant barcode read abundance (log10)” value turned out to be 0.317.
For the sequence “ACGTCGTCTTGGGTTCTAACCTGTTGCCT (site AAGTCGTCTAG)”, the “recombinant barcode read abundance (log10)” value came out at 0.0262.
Take “ACGTCGTCTTGGGTTCTAACCTGTTGCCT (site ACGTCGTCTAG)”: the “recombinant barcode read abundance (log10)” value is 0.0697.
Regarding “ACGTCGTCTTGGGTTCTAACCTGTTGCCT (site AGGTCGTCTAG)”, the “recombinant barcode read abundance (log10)” value was found to be 0.102.
The result for “ACGTCGTCTTGGGTTCTAACCTGTTGCCT (site ATGTCGTCTAG)” reads 0.0865.
For the sequence “ACGTTACCTTGGGTTCTAACCTGTTGCCT (site ACGATACCTAG)”, the “recombinant barcode read abundance (log10)” value worked out at 0.331.
The result for “ACGTTACCTTGGGTTCTAACCTGTTGCCT (site ACGTTACCTAG)” reads 0.501.
The result for “ACGTTGCCTTGGGTTCTAACCTGTTGCCT (site ACATTGCCTAG)” reads 0.188; that for “ACGTTGCCTTGGGTTCTAACCTGTTGCCT (site ACCTTGCCTAG)”, 0.0523; that for “ACGTTGCCTTGGGTTCTAACCTGTTGCCT (site ACGTTGCCTAG)”, 0.316.
The result for “ACGTTGCCTTGGGTTCTAACCTGTTGCCT (site ACTTTGCCTAG)” reads 0.0271.
Turning to “ACTACTCCTTGGGTTCTAACCTGTTGCAG (site ACTACTCCTCT)”, the “recombinant barcode read abundance (log10)” value is 0.461.
Take “ACTACTCCTTGGGTTCTAACCTGTTGCAG (site ACTGGTCCTCT)”: the “recombinant barcode read abundance (log10)” value was determined as 0.183.
As for “ACTAGAGCTTGGGTTCTAACCTGTTGCCT (site ACAAGAGCTAG)”, the “recombinant barcode read abundance (log10)” value is 0.122.
The figure for “ACTAGAGCTTGGGTTCTAACCTGTTGCCT (site ACCAGAGCTAG)” is 0.268.
As for “ACTAGAGCTTGGGTTCTAACCTGTTGCCT (site ACGAGAGCTAG)”, the “recombinant barcode read abundance (log10)” value was determined as 0.197.
The result for “ACTAGAGCTTGGGTTCTAACCTGTTGCCT (site ACTAGAGCTAG)” reads 0.198.
The figure for “ACTAGCTCTTGGGTTCTAACCTGTTGCCT (site ACTAGCTCTAG)” is 0.356; for “ACTAGCTCTTGGGTTCTAACCTGTTGCCT (site ACTTGCTCTAA)” it is 0.0142.
In the case of “ACTATGACTTGGGTTCTAACCTGTTGCTT (site ACTATGACTAA)”, the “recombinant barcode read abundance (log10)” value came to 0.75.
For the sequence “ACTATGACTTGGGTTCTAACCTGTTGCTT (site GACTATCCTCG)”, the “recombinant barcode read abundance (log10)” value turned out to be 0.0905.
The figure for “ACTATGTCTTGGGTTCTAACCTGTTGCCA (site ACTATGTCTTG)” is 0.147; for “ACTATGTCTTGGGTTCTAACCTGTTGCCA (site CCTATGTCTTA)” it is 0.00838.
The figure for “ACTCAGGCTTGGGTTCTAACCTGTTGCCG (site ACAGAGGCTCG)” is 0.138; for “ACTCAGGCTTGGGTTCTAACCTGTTGCCG (site ACTCAGGCTCG)” it is 0.541.
With “ACTCCGTCTTGGGTTCTAACCTGTTGCTA (site ACTCCGTCTTA)”, the “recombinant barcode read abundance (log10)” value was 1.11.
The result for “ACTCCGTCTTGGGTTCTAACCTGTTGCTA (site GCTCCGTCTAA)” reads 0.0432.
On to “ACTCGACCTTGGGTTCTAACCTGTTGCCT (site ACTAGACCTAG)”, for which the “recombinant barcode read abundance (log10)” value came out at 0.197.
Consider “ACTCGACCTTGGGTTCTAACCTGTTGCCT (site ACTCGACCTAG)”, for which the “recombinant barcode read abundance (log10)” value is 1.78.
The result for “ACTGAGTCTTGGGTTCTAACCTGTTGCAT (site ACTGAGTCTAT)” reads 2.69; that for “ACTGAGTCTTGGGTTCTAACCTGTTGCAT (site ACTGAGTCTTT)”, 0.109; that for “ACTGAGTCTTGGGTTCTAACCTGTTGCTT (site ACTGAGTCTAA)”, 1.22.
The result for “ACTGAGTCTTGGGTTCTAACCTGTTGCTT (site ACTGGGTCTAA)” reads 0.0903.
“ACTGGACCTTGGGTTCTAACCTGTTGCTT (site ACTGGACCTAA)”: the “recombinant barcode read abundance (log10)” value amounted to 2.23.
The figure for “ACTGGACCTTGGGTTCTAACCTGTTGCTT (site GCTGGACCTAG)” is 0.616.
The figure for “ACTGGGGCTTGGGTTCTAACCTGTTGCCA (site ACTGGGGCTTG)” is 0.782; for “ACTGGGGCTTGGGTTCTAACCTGTTGCCA (site TCTGGGGCTAG)” it is 0.0799.
As to “ACTGGTCCTTGGGTTCTAACCTGTTGCAG (site ACTACTCCTCT)”, the “recombinant barcode read abundance (log10)” value stood at 0.0961.
The result for “ACTGGTCCTTGGGTTCTAACCTGTTGCAG (site ACTGGTCCTCT)” reads 2.59; that for “ACTTAGCCTTGGGTTCTAACCTGTTGCAT (site ACTTAGCCTAG)”, 1.48; that for “ACTTAGCCTTGGGTTCTAACCTGTTGCAT (site ACTTAGCCTAT)”, 1.27.
Take “ACTTCGACTTGGGTTCTAACCTGTTGCCT (site AATTCGACTAG)”: the “recombinant barcode read abundance (log10)” value was 0.0426.
The figure for “ACTTCGACTTGGGTTCTAACCTGTTGCCT (site ACTTCGACTAG)” is 0.116.
For the sequence “ACTTCGACTTGGGTTCTAACCTGTTGCCT (site AGTTCGACTAG)”, the “recombinant barcode read abundance (log10)” value worked out at 0.461.
The figure for “ACTTCGACTTGGGTTCTAACCTGTTGCCT (site ATTTCGACTAG)” is 0.0176.
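Also: IS621 recombinase and bridge RNA in Escherichia coli cells.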
